From patent US9707244B2, “Compositions and methods for treating conditions that affect epidermis” (Gencia Corporation, priority 2013, dated 2017)

How the values were obtained:
[1] = test system: ARPE-19 cells, a retinal pigmented epithelial cell line; test: XF24 oxygen consumption in senescent ARPE-19 cells; type: cell-based, human; conditions: twenty-four hours after treatment; increasing concentrations
Method: In the present invention ARPE-19 cells were used to evaluate whether Mitocreatine improves mitochondrial parameters and reduces ROS in a cell model of AMD. The cells were prematurely senescenced according to the protocol of Glotin et al. (2008). […] Cells were plated in a XF24 (Seahorse Biosciences) plate for analysis of mitochondrial activities. Twenty-four hours before analysis in the XF24 instrument, cells were treated with increasing concentrations on mitocreatine and vehicle. Twenty-four hours after treatment basal oxygen consumption rates (OCR) were assayed. […] Cells were plated in a XF24 (Seahorse Biosciences) plate for analysis of mitochondrial activities. Twenty-four hours before analysis in the XF24 instrument, cells were treated with increasing concentrations on mitocreatine and vehicle. Twenty-four hours after treatment FCCP-stimulated oxygen consumption rates (maximal OCR) were assayed.

[2] = RIPT (Repeat Insult Patch Test) study; type: in vivo, human; conditions: 0.1% topical formulation
[3] = test system: ARPE-19 cells, a retinal pigmented epithelial cell line; test: WST-1 cell viability in senescent ARPE-19 cells; type: cell-based, human; conditions: up to 1 uM; twenty-four hours after treatment
Method: In the present invention ARPE-19 cells were used to evaluate whether Mitocreatine improves mitochondrial parameters and reduces ROS in a cell model of AMD. The cells were prematurely senescenced according to the protocol of Glotin et al. (2008). […] Cells were plated in a 96 well plate for analysis of WST-1 bioreduction, a formazan based dye similar to MTT whose bioreduction is largely dependent on the glycolytic production of NAD(P)H in viable cells and is routinely used to monitor cell viability.

[4] = test system: BJ human fibroblast cells; test: Survival of fibroblasts treated with chemotherapeutic agents (DAPI fluorescence); type: cell-based; conditions: 48 hours, added simultaneously
Method: Fibroblasts were incubated with increasing amounts of Mitocreatine and certain anti-neoplastic agents, such as Cetuximab, Gemcitabine and Temozolomide. After incubation, cells were washed and the number of adherent (i.e. surviving) cells was assessed by DAPI fluorescence, which was measured utilizing a plate reader (PHERA Star FS from BMG Labtech). For these experiments two kinds of cells were used. Either the Human hepatocellular liver carcinoma cell line HepG2, or the BJ human fibroblast cells, which are established from normal human foreskin. […] Mitocreatine and the antineoplastic agent were added simultaneously.

[5] = test system: fibroblasts; test: Oxygen consumption rate (XF24 extracellular flux analyzer) in fibroblasts; type: cell-based; conditions: 5 nM to 500 nM; within thirty minutes of treatment; compared to 10 μM unmodified creatine
Method: In this assay, an XF24 extracellular flux analyzer (Seahorse Bioscience, North Billerica, Mass.) was used to measure mitochondrial oxygen consumption in intact cells. The XF24 analyzer creates a transient 7 μL chamber in specialized microplates that allows determination of oxygen and proton concentrations in real time through the measurement of oxygen sensitive dyes by the XF24 instrument. 24 hours prior to OCR measurement, fibroblasts were seeded into 20 wells of the 24 well tissue culture plate while 1 ml of XF Calibrant solution (Seahorse Bioscience, North Billerica, Mass.) was added to each well of a 24 well dual-analyte sensor cartridge (Seahorse Bioscience, North Billerica, Mass.). The sensor cartridge repositioned on the 24 well calibration plate, and the plate was incubated overnight at 37° C. without additional CO2.
On the day of the experiment, the injection ports on the sensor cartridge were loaded with compound A-1 or creatine as indicated at 10× concentrations and placed into the XF24 Flux Analyzer for automated calibration. […]
The results of the assay for Mitocreatine at 5 nM, 10 nM, 50 nM, and 500 nM concentrations are shown in FIG. 2 as a percent change from the untreated control. For comparison, the results obtained Mitocreatine were compared with the percent increase in oxygen consumption rate measured upon addition of 10 μM creatine.

[6] = test system: AG16409 fibroblasts from a child; test: 3D collagen cell culture system, young skin fibroblasts; type: cell-based, human
Method: The effects of Mitocreatine on skin fibroblasts cultured in a 3D matrix to better simulate in vivo milieu were examined. The cells were visualized by phase contrast light microscopy and their biological response to different concentrations of Mitocreatine evaluated. The 3D Collagen Cell Culture System from Millipore (Catalogue number ECM 675) was utilized.
All liquids were prepared according to manufacturer's instructions, and kept on ice. Tissue culture plates were coated with collagen by pipetting 500 μL of chilled Collagen Gel Solution into each well of a 24 well tissue culture plate. The plate was immediately transferred to a 37° C. incubator for 60 min to initiate polymerization of the collagen.
After the formation of the collagen gel, AG11073 and AG16409 cells were harvested and re-suspended at 4×10^5/mL and 1×10^6 cells were seeded onto the collagen gel. The cells were obtained using the procedure as described in Example 1.
After overnight incubation at 37° C. with 5% CO2 the media was replaced with fresh media containing various doses of Mitocreatine or the vehicle. Cells were visualized daily using phase contrast microscopy.
Fibroblasts from a person were cultured on a collagen matrix. Two days after seeding, cells were treated with a Mitocreatine at increasing amounts (0, 5, 15 and 25 μL). Five days post-treatment, collagen shrinkage was assayed by means of translucency.

[7] = test system: ARPE-19 cells, a retinal pigmented epithelial cell line; test: DCFDA ROS production in senescent ARPE-19 cells; type: cell-based, human; conditions: forty-eight hours after treatment; increasing concentrations
Method: In the present invention ARPE-19 cells were used to evaluate whether Mitocreatine improves mitochondrial parameters and reduces ROS in a cell model of AMD. The cells were prematurely senescenced according to the protocol of Glotin et al. (2008). ARPE-19 cells, a retinal pigmented epithelial cell line, were prematurely senesced according to the protocol of Glotin et al. (2008). Cells were plated in a 96 well plate for analysis of reactive oxygen species (ROS) production using DCFDA, a fluorogenic dye that is oxidized by hydroxyl, peroxyl and other ROS.

CN(CC(=O)NCCC[P+](c1ccccc1)(c1ccccc1)c1ccccc1)C(=N)N.Cl.[Cl-] [Mitocreatine, N^2-[ammonio(imino)methyl]-N^2-methyl-N-[3-(triphenylphosphonio)propyl] glycinamide dichloride]
basal oxygen consumption [1]: dose-dependent increase
maximal oxygen consumption (FCCP-stimulated) [1]: dose-dependent increase
allergenicity in RIPT [2]: hypoallergenic
cell viability (WST-1) [3]: does not negatively impact cell viability
survival of fibroblasts ([4]; Gemcitabine (80 μM)): improved the survival
survival of fibroblasts ([4]; Temozolomide (1 mM)): improved the survival
survival of fibroblasts ([4]; high concentrations of Cetuximab): improved the survival
oxygen consumption rate [5]: significant increase in oxygen consumption rate
collagen translucency [6]: No change
ROS production [7]: dose-independent decrease
